Assay results as given in patent publication EP1101492A1, “NOVEL REMEDIES FOR ALLERGIC DISEASES” (FUJI YAKUHIN KOGYO KABUSHIKI KAISHA, priority 1998, dated 2000).

Experiments:
Body weight gain in mice = conditions: test compounds 60 mg/kg s.c., prednisolone 10 mg/kg i.p., once a day for 6 days (Days 0-5), average ± standard deviation; for Body Weight Gain, Observation Day 5: non-administered 0.50± 0.23; for Body Weight Gain, Observation Day 7: non-administered 0.80± 0.48; for Body Weight Gain, Observation Day 10: non-administered 1.07± 0.58
Description: Accordingly, for assessing the side-effect each of the following test compounds an action on body weight gains was examined.
Next the mice were measured for their body weight. Each body weight gain was calculated on Days 5, 7 and 10 post-administration based on the body weight just prior to administration.

[1] = system: mouse experimental atopic dermatitis models; assay: Auricle edema in experimental atopic dermatitis model (anti-DNP IgE sensitization, DNFB elicitation); format: in vivo, Balb/c mice; conditions: test compounds 60 mg/kg s.c., prednisolone 10 mg/kg i.p.; for % Inhibition IPR: auricle edema 1 hour post-elicitation; for % Inhibition IPR / % Inhibition LPR: once a day, 24 & 2 hours prior to DNFB-elicitation, vs untreated group; for % Inhibition LPR: auricle edema Day 1 post-elicitation; for % Inhibition vLPR: auricle edema Day 7 post-elicitation
Description: Intravenous injection of an anti-2,4-dinitrophenol (DNP) antibody (anti-DNP Ab, monoclonal IgE Ab; its antibody titer was 1 : 512 to 1 : 1024 by a rat heterologous passive cutaneous anaphylaxis reaction using a Wister rat) into a tail vein of female Balb/c mice (7-week old, body weight: 17 to 20 g, purchased from JAPAN SLC, Inc.) at a dose of […] per animal raised passive sensitization. Twenty four hours post-sensitization, 0.1% 2,4-dinitrofluorobenzene (DNFB; Nacalai Tesque, Inc.) in ethanol was painted onto both sides of a pair of mouse auricles at a dose of 10µL per each side for elicitation.
Fresh unsensitized mice were painted with 0.1% DNFB in ethanol onto their ear in the same manner as aforementioned and served as a control group. Not only immediately prior to elicitation but also 1 hour, 5 hours, daily between Days 1 and 14, and on Day 16 post-elicitation, ear thickness was measured using a dial thickness gauge (Peacock Co.). Each degree of auricle edemas was calculated: Auricular Edema (µm)=(Ear Thickness Post-Elicitation, µm) - (Ear Thickness immediately prior to Elicitation, µm) [formula]
Balb/c mice were passively sensitized with anti-DNP IgE Ab in the same manner as in Example 1. Twenty four hours later, 0.1% DNFB in ethanol was painted onto both sides of a pair of mouse auricles at a dose of 10 µL per each side for elicitation.
Immediately prior to elicitation, 1 hour and on Day 1 post-elicitation, auricle thickness was measured in the same manner as in Example 1. Each therapeutic efficacy is recorded as a percent inhibition wherein the "auricle edema (untreated group)" is used as a control. Auricle Edema Inhibition (%) = [ 1 -(Auricle Edema (Treated Group))/(Auricle Edema (Untreated Group))] × 100 (%) [formula]
Immediately prior to elicitation, and on Day 7 post-elicitation, auricle thickness was similarly measured. Each therapeutic efficacy is recorded as a percent inhibition wherein the auricle edema in the untreated group is used as a control.
Immediately prior to elicitation, and on Day 7 post-elicitation, auricle thickness was similarly measured. Each therapeutic efficacy is recorded as a percent inhibition wherein the auricle edema (untreated group) is used as a control.
Immediately prior to elicitation, at 1 and 4 hours and on Days 1, 3 and 7 post-elicitation, auricle thickness was similarly measured. From each auricle edema (µm) based on the auricle thickness immediately prior to elicitation, especially a prophylactically therapeutic efficacy of the test compound was evaluated.
Immediately prior to elicitation, at 0.5, 1 and 4 hours and on Days 1, 3 and 7 post-elicitation, auricle thickness was similarly measured. Each amount of auricle edemas was calculated (average± standard deviation).

[2] = system: guinea pig experimental bronchial asthma models; assay: Experimental bronchial asthma model (ovalbumin inhalation): airway resistance and asthmatic death;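 on all read-outs here: female Std:Hartley guinea pigs sensitized by inhaling nebulized ovalbumin once daily for 8 consecutive days, 8 to 11 animals per group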; conditions: test compounds 15 mg/kg s.c. (Compound No. 114: 30 mg/kg), prednisolone 10 mg/kg orally; for % Survival: asthmatic death within several minutes after elicitation, water for injection 54.5, 0.5% methyl cellulose 66.7; for % Amelioration in Airway Resistance, 1 Hour after Elicitation / % Amelioration in Airway Resistance, 6 Hours after Elicitation / % Amelioration in Airway Resistance, Immediately after Elicitation: 24 and 2 hours prior to elicitation, vs solvent control
[3] = daily from 3 to 6 days after DNFB-elicitation
[4] = daily from 1 day prior to through 5 days after DNFB-elicitation

CNC(=O)C(CCCCNC(C)=N)NC(=O)C(CC(C)C)C(C)C(=O)NO (racemic) [Compound No. 22, N^a-[4-(Hydroxyamino)-2(R)-isobutyl-3(RS)-methylsuccinyl]-N^e-acetimidoyl-L-lysine N-methylamide · 1 acetate]
Body Weight Gain, Observation Day 5 (Body weight gain in mice): 0.97± 0.31 | Body Weight Gain, Observation Day 7 (Body weight gain in mice): 0.80± 0.39 | Body Weight Gain, Observation Day 10 (Body weight gain in mice): 1.20± 0.53 | % Inhibition IPR [1]: 52.7% | % Inhibition LPR [1]: 33.1% | % Inhibition vLPR [1, 3]: 49.5%

CNC(=O)C(CCCN)NC(=O)C(CC(C)C)C(CCCc1ccc(NC(=N)N)cc1)C(=O)NO (racemic) [Compound No. 46, N^a-[4-(Hydroxyamino)-2(R)-isobutyl-3(RS)-[3-(4'-guanidinophenyl)propyl]succinyl]-L-ornithine-N-methylamide · 2 acetate]
Body Weight Gain, Observation Day 5 (Body weight gain in mice): 1.08± 0.22 | Body Weight Gain, Observation Day 7 (Body weight gain in mice): 1.57± 0.33 | Body Weight Gain, Observation Day 10 (Body weight gain in mice): 1.33± 0.32 | % Inhibition LPR [1]: 46.7% | % Inhibition vLPR [1, 4]: 27.5%

CC(=N)NCc1ccc(CC(NC(=O)C(CC(C)C)C(CC(C)C)C(=O)NO)C(=O)NCCO)cc1 (racemic) [Compound No. 91, N^a-[4-(Hydroxyamino)-2(R),3(RS)-diisobutylsuccinyl]-4'-acetimidoyliminomethyl-L-phenylalanine N-(2-hydroxyethyl)amide · 2 acetate]
Body Weight Gain, Observation Day 5 (Body weight gain in mice): 1.28± 0.37 | Body Weight Gain, Observation Day 7 (Body weight gain in mice): 1.55± 0.48 | Body Weight Gain, Observation Day 10 (Body weight gain in mice): 1.30± 0.54 | % Inhibition LPR [1]: 43.0%

CNC(=O)C(CCCNC(=N)N)NC(=O)C(CC(C)C)C(Cc1ccc(CN2C(=O)c3ccccc3C2=O)cc1)C(=O)NO (single isomer, unassigned) [Compound No. 51, N^a-[4-(Hydroxyamino)-2(R)-isobutyl-3(R or S)-(p-phthalimidomethylbenzyl)succinyl]-L-arginine N-methylamide · 1 acetate]
% Survival [2]: 70.0% | % Amelioration in Airway Resistance, 1 Hour after Elicitation [2]: 59.1% | % Amelioration in Airway Resistance, 6 Hours after Elicitation [2]: 56.3% | % Amelioration in Airway Resistance, Immediately after Elicitation [2]: 30.1%

CNC(=O)[C@H](CCCCN)NC(=O)[C@H](CC(C)C)C(CCCc1ccc(C(=O)OC)cc1)C(=O)NO (single isomer, unassigned) [Compound No. 65, N^a-[4-(Hydroxyamino)-2(R)-isobutyl-3(R or S)-[3-(p-methoxycarbonylphenyl)propyl]succinyl]-L-lysine N-methylamide · 1 acetate]
% Survival [2]: 87.5% | % Amelioration in Airway Resistance, 1 Hour after Elicitation [2]: 22.3% | % Amelioration in Airway Resistance, 6 Hours after Elicitation [2]: 63.6% | % Amelioration in Airway Resistance, Immediately after Elicitation [2]: 29.9%

CC(=N)N=Cc1ccc(C[C@H](NC(=O)[C@H](CC(C)C)C(CC(C)C)C(=O)NO)C(=O)NCCN(C)C)cc1.CC(=O)O.CC(=O)O (single isomer, unassigned) [Compound No. 90, N^a-[4-(Hydroxyamino)-2(R),3(R or S)-diisobutylsuccinyl]-4'-acetimidoyliminomethyl-L-phenylalanine N-(2-N',N'-dimethylaminoethyl)amide · 2 acetate]
% Inhibition vLPR [1, 4]: 20.6%

CC(=O)O.CNC(=O)[C@H](Cc1ccc(CNC(C)=N)cc1)NC(=O)[C@H](CC(C)C)[C@H](O)C(=O)NO [Compound No. 43, N^a-[4-(Hydroxyamino)-2(R)-isobutyl-3(S)-hydroxysuccinyl]-4'-acetimidoyliminomethyl-L-phenylalanine N-methylamide · 1 acetate]
% Inhibition IPR [1]: 38.2% | % Inhibition LPR [1]: 39.2% | % Inhibition vLPR [1, 3]: 43.6%

CC(=O)O.CNC(=O)[C@H](Cc1ccc(NC(=N)N)cc1)NC(=O)[C@@H](CC(=O)NO)CC(C)C [Compound No. 121, N-[4-(N-Hydroxyamino)-2(R)-isobutylsuccinyl]-L-4'-guanidophenylalanine-N-methylamide 1 acetate]
% Survival [2]: 88.9% | % Amelioration in Airway Resistance, 1 Hour after Elicitation [2]: 56.4% | % Amelioration in Airway Resistance, 6 Hours after Elicitation [2]: 102.2%

CC(=O)O.CNC(=O)[C@H](Cc1ccc(CNC(C)=N)cc1)NC(=O)[C@H](CC(C)C)[C@H](CCCc1ccccc1)C(=O)NO [Compound No. 126, N-[4-(N-Hydroxyamino)-2(R)-isobutyl-3(S)-(3-phenyltrimethylene)succinyl]-L-4'-acetimidoyliminomethylenephenyl alanine-N-methylamide · 1 acetate]
% Inhibition IPR [1]: 38.2% | % Inhibition LPR [1]: 39.2% | % Inhibition vLPR [1, 3]: 44.7%

CC(=O)O.CC(C)C[C@H](C(=O)NO)[C@@H](CC(C)C)C(=O)N[C@@H](Cc1ccc(CN)cc1)C(=O)NCCC(=O)O [Compound No. 127, N-[4-(N-Hydroxyamino)-2(R),3(S)-diisobutylsuccinyl]-L-4'-aminomethylphenylalaninyl-β-alanine · 1 acetate]
% Survival [2]: 70.0% | % Amelioration in Airway Resistance, 1 Hour after Elicitation [2]: 20.8% | % Amelioration in Airway Resistance, 6 Hours after Elicitation [2]: 55.2% | % Amelioration in Airway Resistance, Immediately after Elicitation [2]: 21.9% | % Inhibition IPR [1]: 47.8% | % Inhibition LPR [1]: 41.1% | % Inhibition vLPR [1, 3]: 20.6% | % Inhibition vLPR [1, 4]: 46.7%

CNC(=O)[C@H](Cc1ccc(CN)cc1)NC(=O)[C@H](CC(C)C)[C@@H](CCCc1ccccc1)C(=O)NO.Cl [Compound No. 128, N-[4-(N-Hydroxyamino)-2(R)-isobutyl-3(R)-(3-phenylpropyl)succinyl)-L-4'-aminomethylphenylalanine-N-methylamide · 1 hydrochloride]
% Survival [2]: 72.7% | % Amelioration in Airway Resistance, 1 Hour after Elicitation [2]: 53.2% | % Amelioration in Airway Resistance, 6 Hours after Elicitation [2]: 49.4%
